Patent publication US20100267561A1, “HERBICIDAL PYRIDAZINONE DERIVATIVES” (priority 2007, published 2010)

Assays:
Format in all cases: in vivo
[1] = system: umbrella sedge (Cyperus difformis); test: Test B flooded paddy test plant response
Method in brief: (§1)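 Rice, umbrella sedge, ducksalad and barnyardgrass at 2-leaf stage; pots flooded to 3 cm, compounds applied into paddy water, depth held throughout. Greenhouse 13 to 15 days, then visual rating vs untreated controls on 0–100 scale (0 no effect, 100 complete control); dash means no test result.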

[2] = system: ducksalad (Heteranthera limosa); test: Test B flooded paddy test plant response
Method in brief: as §1

[3] = system: barnyardgrass (Echinochloa crus-galli); test: Test B flooded paddy test plant response
Method in brief: as §1

[4] = system: rice (Oryza sativa); test: Test B flooded paddy test plant response
Method in brief: as §1

[5] = system: winter barley (Hordeum vulgare); test: Test B postemergence plant response; details: for Plant response rating, Barley: Postemergence
Method in brief: (§2)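 Postemergence greenhouse test; plants at 2 to 18 cm (1- to 4-leaf stage) given formulated test chemical, held 13 to 15 days, then visually rated against untreated controls on a 0 (no effect) to 100 (complete control) scale; dash means no result.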

[6] = system: chickweed (Stellaria media); test: Test B postemergence plant response; details: for Plant response rating, Chickweed: Postemergence
Method in brief: as §2

[7] = system: windgrass (Apera spica-venti); test: Test B postemergence plant response; details: for Plant response rating, Windgrass: Postemergence
Method in brief: as §2

[8] = system: canarygrass (Phalaris minor); test: Test B postemergence plant response; details: for Plant response rating, Canarygrass: Postemergence
Method in brief: as §2

[9] = system: velvetleaf (Abutilon theophrasti); test: Test A pre-/postemergence plant response
Method in brief: (§3)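 Seeds in loam soil/sand blend treated preemergence by directed soil spray, with simultaneous postemergence spray on 2–10 cm plants at one- to two-leaf stage; compounds in non-phytotoxic solvent with surfactant. Injury visually rated versus untreated controls after about 10 days in greenhouse, 0 (no effect) to 100 (complete control).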

[10] = system: corn (Zea mays); test: Test A pre-/postemergence plant response
Method in brief: as §3

[11] = system: large crabgrass (Digitaria sanguinalis); test: Test A pre-/postemergence plant response
Method in brief: as §3

[12] = system: morningglory (Ipomoea coccinea); test: Test A pre-/postemergence plant response
Method in brief: as §3

[13] = system: giant foxtail (Setaria faberi); test: Test A pre-/postemergence plant response
Method in brief: as §3

[14] = system: pigweed (Amaranthus retroflexus); test: Test A pre-/postemergence plant response
Method in brief: as §3

[15] = system: barnyardgrass (Echinochloa crus-galli); test: Test A pre-/postemergence plant response
Method in brief: as §3

[16] = Flood (flooded paddy test), 62 g ai/ha, scale 0 to 100, 0 no effect, 100 complete control
[17] = Flood (flooded paddy test), 125 g ai/ha, scale 0 to 100, 0 no effect, 100 complete control
[18] = Flood (flooded paddy test), 250 g ai/ha, scale 0 to 100, 0 no effect, 100 complete control
[19] = Flood, 31 g ai/ha, scale 0 to 100
[20] = 8 g ai/ha, postemergence, 0-100 scale
[21] = 31 g ai/ha, scale 0 to 100, 0 no effect, 100 complete control
[22] = 62 g ai/ha, scale 0 to 100, 0 no effect, 100 complete control
[23] = Postemergence, 31 g ai/ha, 0 to 100 scale (0 no effect, 100 complete control)
[24] = Postemergence, 125 g ai/ha, 0 to 100 scale, 0 no effect, 100 complete control
[25] = Preemergence, 31 g ai/ha, 0 to 100 scale, 0 is no effect, 100 is complete control
[26] = Preemergence, 125 g ai/ha, 0 to 100 scale (0 no effect, 100 complete control)
[27] = Postemergence, 500 g ai/ha, 0 to 100 scale, 0 no effect, 100 complete control
[28] = Preemergence, 500 g ai/ha, 0 to 100 scale (0 no effect, 100 complete control)

## CCc1cc(-c2ccc(Cl)cc2)nn1-c1c(OS(C)(=O)=O)cnn(C)c1=O [Compound 39]
[1]; [16]
  Plant response rating, Sedge, Umbrella: 0
[1]; [17]
  Plant response rating, Sedge, Umbrella: 0
[1]; [18]
  Plant response rating, Sedge, Umbrella: 85
[1]; [19]
  Plant response rating, Sedge, Umbrella: 0
[2]; [16]
  Plant response rating, Ducksalad: 0
[2]; [17]
  Plant response rating, Ducksalad: 0
[2]; [18]
  Plant response rating, Ducksalad: 80
[2]; [19]
  Plant response rating, Ducksalad: 0
[3]; [16]
  Plant response rating, Barnyardgrass: 80
[3]; [17]
  Plant response rating, Barnyardgrass: 65
[3]; [18]
  Plant response rating, Barnyardgrass: 85
[3]; [19]
  Plant response rating, Barnyardgrass: 0
[4]; [16]
  Plant response rating, Rice: 0
[4]; [17]
  Plant response rating, Rice: 50
[4]; [18]
  Plant response rating, Rice: 80
[4]; [19]
  Plant response rating, Rice: 0
[5]; [20]
  Barley plant response rating: 0
[5]; 16 g ai/ha, scale 0 to 100, 0 no effect, 100 complete control
  Plant response rating, Barley: 5
[5]; [21]
  Plant response rating, Barley: 40
[5]; [22]
  Plant response rating, Barley: 70
[6]; [20]
  Chickweed plant response rating: 0
[6]; 16 g ai/ha, scale 0 to 100
  Plant response rating, Chickweed: 0
[6]; [21]
  Plant response rating, Chickweed: 0
[6]; [22]
  Plant response rating, Chickweed: 0
[7]; [20]
  Windgrass plant response rating: 0
[7]; 16 g ai/ha, scale 0 to 100
  Plant response rating, Windgrass: 40
[7]; [22]
  Plant response rating, Windgrass: 100
[8]; [20]
  Canarygrass plant response rating: 0
[8]; 16 g ai/ha, scale 0 to 100
  Plant response rating, Canarygrass: 0
[8]; [21]
  Plant response rating, Canarygrass: 40
[8]; [22]
  Plant response rating, Canarygrass: 50
[9]; [23]
  Plant response rating, Velvetleaf: 0
[9]; [24]
  Plant response rating, Velvetleaf: 0
[9]; [25]
  Plant response rating, Velvetleaf: 0
[9]; [26]
  Plant response rating, Velvetleaf: 0
[10]; [23]
  Plant response rating, Corn: 70
[10]; [24]
  Plant response rating, Corn: 100
[10]; [25]
  Plant response rating, Corn: 30
[10]; [26]
  Plant response rating, Corn: 90
[11]; [23]
  Plant response rating, Crabgrass, Large: 60
[11]; [24]
  Plant response rating, Crabgrass, Large: 100
[11]; [25]
  Plant response rating, Crabgrass, Large: 60
[11]; [26]
  Plant response rating, Crabgrass, Large: 100
[12]; [23]
  Plant response rating, Morningglory: 0
[12]; [24]
  Plant response rating, Morningglory: 0
[12]; [25]
  Plant response rating, Morningglory: 0
[12]; [26]
  Plant response rating, Morningglory: 0
[13]; [23]
  Plant response rating, Foxtail, Giant: 90
[13]; [24]
  Plant response rating, Foxtail, Giant: 100
[13]; [25]
  Plant response rating, Foxtail, Giant: 90
[13]; [26]
  Plant response rating, Foxtail, Giant: 100
[14]; [23]
  Plant response rating, Pigweed: 0
[14]; [24]
  Plant response rating, Pigweed: 0
[14]; [25]
  Plant response rating, Pigweed: 0
[14]; [26]
  Plant response rating, Pigweed: 0
[15]; [23]
  Plant response rating, Barnyardgrass: 100
[15]; [24]
  Plant response rating, Barnyardgrass: 100
[15]; [25]
  Plant response rating, Barnyardgrass: 100
[15]; [26]
  Plant response rating, Barnyardgrass: 100

## 4-[3-(4-chlorophenyl)-5-methyl-1H-pyrazol-3-yl]-5-hydroxy-2-methyl-3(2H)-pyridazinone [Compound 3]
[1]; [16]
  Plant response rating, Sedge, Umbrella: 60
[1]; [17]
  Plant response rating, Sedge, Umbrella: 80
[1]; [18]
  Plant response rating, Sedge, Umbrella: 80
[1]; [19]
  Plant response rating, Sedge, Umbrella: 60
[2]; [16]
  Plant response rating, Ducksalad: 0
[2]; [17]
  Plant response rating, Ducksalad: 0
[2]; [18]
  Plant response rating, Ducksalad: 40
[2]; [19]
  Plant response rating, Ducksalad: 0
[3]; [16]
  Plant response rating, Barnyardgrass: 60
[3]; [17]
  Plant response rating, Barnyardgrass: 70
[3]; [18]
  Plant response rating, Barnyardgrass: 80
[3]; [19]
  Plant response rating, Barnyardgrass: 0
[4]; [16]
  Plant response rating, Rice: 60
[4]; [17]
  Plant response rating, Rice: 75
[4]; [18]
  Plant response rating, Rice: 80
[4]; [19]
  Plant response rating, Rice: 20
[5]; [21]
  Plant response rating, Barley: 0
[5]; 62 g ai/ha, scale 0 to 100
  Plant response rating, Barley: 0
[5]; 125 g ai/ha, scale 0 to 100
  Plant response rating, Barley: 0
[5]; 250 g ai/ha, scale 0 to 100
  Plant response rating, Barley: 0
[6]; [21]
  Plant response rating, Chickweed: 0
[6]; 62 g ai/ha, scale 0 to 100
  Plant response rating, Chickweed: 0
[6]; 125 g ai/ha, scale 0 to 100
  Plant response rating, Chickweed: 0
[6]; 250 g ai/ha, scale 0 to 100
  Plant response rating, Chickweed: 0
[7]; [21]
  Plant response rating, Windgrass: 80
[7]; 62 g ai/ha, scale 0 to 100
  Plant response rating, Windgrass: 100
[7]; 125 g ai/ha, scale 0 to 100
  Plant response rating, Windgrass: 100
[7]; 250 g ai/ha, scale 0 to 100
  Plant response rating, Windgrass: 100
[8]; [21]
  Plant response rating, Canarygrass: 85
[8]; 62 g ai/ha, scale 0 to 100
  Plant response rating, Canarygrass: 85
[8]; 125 g ai/ha, scale 0 to 100
  Plant response rating, Canarygrass: 85
[8]; 250 g ai/ha, scale 0 to 100
  Plant response rating, Canarygrass: 90
[9]; [24]
  Plant response rating, Velvetleaf: 0
[9]; [27]
  Plant response rating, Velvetleaf: 50
[9]; [26]
  Plant response rating, Velvetleaf: 0
[9]; [28]
  Plant response rating, Velvetleaf: 10
[10]; [24]
  Plant response rating, Corn: 90
[10]; [27]
  Plant response rating, Corn: 100
[10]; [26]
  Plant response rating, Corn: 80
[10]; [28]
  Plant response rating, Corn: 90
[11]; [24]
  Plant response rating, Crabgrass, Large: 100
[11]; [27]
  Plant response rating, Crabgrass, Large: 100
[11]; [26]
  Plant response rating, Crabgrass, Large: 100
[11]; [28]
  Plant response rating, Crabgrass, Large: 100
[12]; [24]
  Plant response rating, Morningglory: 50
[12]; [27]
  Plant response rating, Morningglory: 60
[12]; [26]
  Plant response rating, Morningglory: 0
[12]; [28]
  Plant response rating, Morningglory: 0
[13]; [24]
  Plant response rating, Foxtail, Giant: 100
[13]; [27]
  Plant response rating, Foxtail, Giant: 100
[13]; [26]
  Plant response rating, Foxtail, Giant: 100
[13]; [28]
  Plant response rating, Foxtail, Giant: 100
[14]; [24]
  Plant response rating, Pigweed: 0
[14]; [27]
  Plant response rating, Pigweed: 10
[14]; [26]
  Plant response rating, Pigweed: 0
[14]; [28]
  Plant response rating, Pigweed: 0
[15]; [24]
  Plant response rating, Barnyardgrass: 100
[15]; [27]
  Plant response rating, Barnyardgrass: 100
[15]; [26]
  Plant response rating, Barnyardgrass: 90
[15]; [28]
  Plant response rating, Barnyardgrass: 100
